Test results from patent US20020086278A1, “CHROMOGENIC MEDIA CONTAINING BLOOD OR HEMIN” (priority 1999, published 2002).
Like-named read-outs stand apart in the source and are kept apart here.

Legend:
Assay type in all cases: cell-based
milu 9341 = assay: Example 3: colony color on chromogenic TSA II with 5% sheep blood (chromogen in medium); settings: CO2, 21 h
S. milleri (stmi) = assay: as above; settings: for Colony Color: stmi 6249, 21 h
[1] = system: Gardnerella vaginalis 14019; assay: Example 1: growth and colony color on plates surface-spread with chromogen; settings: Summary of Table I; G. vaginalis 14014
S pyogenes (stpy) = assay: Example 3: colony color on chromogenic TSA II with 5% sheep blood (chromogen in medium); settings: for Colony Color: 21 h
[2] = system: Branhamella catarrhalis (brca); assay: as above; settings: for Colony Color: CO2, 21 h
Salmonella spp. (sasp) = settings: for Colony Color: CO2, 21 h
[3] = system: Entercoccus faecalis (enfa); assay: Example 3: colony color on chromogenic TSA II with 5% sheep blood (chromogen in medium)
E. faecium (enfu) = assay: as above
cakr 34135 = assay: as above; settings: CO2, 21 h
[4] = system: Pseudomonas aeruginosa (psae); assay: as above; settings: for Colony Color: CO2, 21 h
Candida albicans (caal) = assay: as above; settings: for Colony Color: caal 10231, 24 h
[5] = system: Serratia marcescens (sema); assay: as above
[6] = system: Aeromonas hydrophilia (aehy); assay: as above; settings: for Colony Color: CO2, 21 h
N. gonorrhoeae 35201 = assay: Example 1: growth and colony color on plates surface-spread with chromogen; settings: Substrate on Choclate II Agar; N. gono. 35201
[7] = system: Streptococcus pneumoniae 6303; assay: as above; settings: TSA II 5SB; S. pneu: 6303
[8] = system: Klebsiella pneumoniae (klpn); assay: Example 3: colony color on chromogenic TSA II with 5% sheep blood (chromogen in medium); settings: for Colony Color: CO2, 21 h
Group B Strep. 12386 = assay: Example 1: growth and colony color on plates surface-spread with chromogen; settings: for Growth: Group B Strep 12386
[9] = system: Staphylococcus Coag Neg (step); assay: Example 3: colony color on chromogenic TSA II with 5% sheep blood (chromogen in medium); settings: 21 h
[10] = system: Streptococcus agalactiae (stag); assay: as above
S. pneumoniae (stpn) = assay: as above
[11] = chromogenic TSA II with 5% Sheep Blood, 0.1 g/l, 2 strains tested
[12] = chromogenic TSA II with 5% Sheep Blood, 0.1 g/l, 6 strains tested
[13] = chromogenic TSA II with 5% Sheep Blood, 0.1 g/l, 1 strain tested
[14] = chromogenic TSA II with 5% Sheep Blood, 0.1 g/l, 3 strains tested

`OC[C@H]1O[C@@H](Oc2c[nH]c3ccc(Br)c(Cl)c23)[C@H](O)[C@@H](O)[C@H]1O` [X-Gal, 5-Br-4-Cl-3-indolyl-β-D-galactopyranoside] was tested, and the “Colony Color” value (milu 9341) was 0, the “Colony Color (Summary)” value (S. milleri (stmi); [11]) was 0 and the “Colony Color” value (S. milleri (stmi); CO2) was 0. The “Colony Color” value (S. milleri (stmi); air) was 0, the “Substrates Producing Growth Inhibition” value [1] was “X-Gal” and the “Colony Color (Summary)” value (S pyogenes (stpy); [12]) was 0. The “Colony Color” value (S pyogenes (stpy); stpy 1027, CO2) was 0, the “Colony Color” value (S pyogenes (stpy); stpy 1028, CO2) was 0 and the “Colony Color” value (S pyogenes (stpy); stpy 1029, CO2) was 0. For the same compound, the “Colony Color” value (S pyogenes (stpy); stpy 1030, CO2) was 0, the “Colony Color” value (S pyogenes (stpy); stpy 19615, CO2) was 0 and the “Colony Color” value (S pyogenes (stpy); stpy 19615, air) was 0. For the same compound, the “Colony Color” value (S pyogenes (stpy); stpy 49117, CO2) was 0, the “Colony Color” value (S pyogenes (stpy); stpy 49117, air) was 0 and the “Colony Color” value (S pyogenes (stpy); stpy 51339, CO2) was 0. The “Colony Color” value (S pyogenes (stpy); stpy 51339, air) was 0, the “Colony Color” value ([2]; brca 25238) was 0 and the “Colony Color” value ([2]; brca 25240) was 0. The “Colony Color (Summary)” value [2, 11] was 0, the “Colony Color (Summary)” value (Salmonella spp. (sasp); [11]) was 0 and the “Colony Color” value (Salmonella spp. (sasp); saty 19430) was 0. The “Colony Color” value (Salmonella spp. (sasp); satym 14028) was 0, the “Colony Color” value ([3]; enfa 597, CO2, 21 h) was 0 and the “Colony Color” value ([3]; enfa 597, air, 21 h) was 0. The “Colony Color” value ([3]; enfa 10741, CO2, 21 h) was “gb”, the “Colony Color” value ([3]; enfa 10741, air, 21 h) was “lgb” and the “Colony Color” value ([3]; enfa 12953, CO2, 21 h) was 0. The “Colony Color” value ([3]; enfa 12953, air, 21 h) was 0, the “Colony Color” value ([3]; enfa 14506, CO2, 21 h) was “lgb” and the “Colony Color” value ([3]; enfa 14506, air, 21 h) was 0. The “Colony Color” value ([3]; enfa 29212, CO2, 21 h) was “gb”, the “Colony Color” value ([3]; enfa 29212, CO2, 24 h) was “vlgb” and the “Colony Color” value ([3]; enfa 29212, air, 21 h) was “gb”. The “Colony Color” value ([3]; enfa 29212, air, 24 h) was “vlgb”, the Colony Color (E. faecium (enfu); E. faecium (ATCC 49032)) was “dark blue” and the “Colony Color (Summary)” value (E. faecium (enfu); [13]) was “+”. For the same compound, the “Colony Color” value (E. faecium (enfu); enfu 49032, CO2, 21 h) was “gb”, the “Colony Color” value (E. faecium (enfu); enfu 49032, air, 21 h) was “db” and the “Colony Color” value (cakr 34135) was 0. The “Colony Color (Summary)” value [4, 14] was 0, the “Colony Color” value ([4]; psae 9027) was 0 and the “Colony Color” value ([4]; psae 15442) was 0. For the same compound, the “Colony Color” value ([4]; psae 33607) was 0, the “Colony Color” value (Candida albicans (caal); CO2) was 0 and the “Colony Color” value (Candida albicans (caal); air) was 0. For the same compound, the “Colony Color (Summary)” value (Candida albicans (caal); [11]) was 0, the “Colony Color (Summary)” value [5, 13] was “+” and the “Colony Color” value ([5]; sema 13880, CO2, 21 h) was “gb”. For the same compound, the “Colony Color” value ([6]; aehy 7965) was “gb”, the “Colony Color” value ([6]; aehy 7966) was “gb” and the “Colony Color” value ([6]; aehy 49847) was “gb”. The “Colony Color (Summary)” value [6, 14] was 0, the Growth (N. gonorrhoeae 35201) was “<” and the Color [7] was “light blue”. For the same compound, the “Colony Color (Summary)” value [8, 14] was “+”, the “Colony Color” value ([8]; klpn 13883) was “gb” and the “Colony Color” value ([8]; klpn 33606) was “gb”. For the same compound, the “Substrates Producing Growth Inhibition” value (Group B Strep. 12386; Summary of Table I, Group B Strep. 12386) was “Slight inhib. w/ X-”, the Growth (Group B Strep. 12386; TSA II 5SB) was “<” and the Growth (Group B Strep. 12386; TSA Plain) was “<”. The “Colony Color” value ([9]; step 12228, CO2) was 0, the “Colony Color” value ([9]; step 12228, air) was 0 and the “Colony Color” value ([9]; step cdc1, CO2) was 0. The “Colony Color” value ([9]; step cdc1, air) was 0, the “Colony Color” value ([9]; step cdc2, CO2) was 0 and the “Colony Color” value ([9]; step cdc2, air) was 0. The “Colony Color” value ([9]; step cdc4, CO2) was 0, the “Colony Color” value ([9]; step cdc4, air) was 0 and the “Colony Color (Summary)” value [10, 14] was 0. The “Colony Color” value ([10]; stag 4768, CO2, 21 h) was 0, the “Colony Color” value ([10]; stag 4768, air, 21 h) was 0 and the “Colony Color” value ([10]; stag 12386, CO2, 21 h) was 0. The “Colony Color” value ([10]; stag 12386, CO2, 24 h) was 0, the “Colony Color” value ([10]; stag 12386, air, 24 h) was 0 and the “Colony Color (Summary)” value (S. pneumoniae (stpn); [12]) was 0. For the same compound, the “Colony Color” value (S. pneumoniae (stpn); stpn 1259, CO2, 21 h) was 0, the “Colony Color” value (S. pneumoniae (stpn); stpn 1260, CO2, 21 h) was 0 and the “Colony Color” value (S. pneumoniae (stpn); stpn 1628, CO2, 21 h) was 0. For the same compound, the “Colony Color” value (S. pneumoniae (stpn); stpn 6303, CO2, 24 h) was 0, the “Colony Color” value (S. pneumoniae (stpn); stpn 6303, air, 24 h) was 0 and the “Colony Color” value (S. pneumoniae (stpn); stpn 6305, CO2, 24 h) was 0. For the same compound, the “Colony Color” value (S. pneumoniae (stpn); stpn 6305, air, 24 h) was 0.
